Measurements published in EP0411751A1, “Renin inhibitory peptides” (Beecham Group p.l.c., priority 1989, dated 1991).

Biological target: T1, human renin (Homo sapiens, UniProt P00797)
T1 construct: from tissue; host or cells: human plasma from blood of healthy volunteers
T1 sequence (P00797 67-406): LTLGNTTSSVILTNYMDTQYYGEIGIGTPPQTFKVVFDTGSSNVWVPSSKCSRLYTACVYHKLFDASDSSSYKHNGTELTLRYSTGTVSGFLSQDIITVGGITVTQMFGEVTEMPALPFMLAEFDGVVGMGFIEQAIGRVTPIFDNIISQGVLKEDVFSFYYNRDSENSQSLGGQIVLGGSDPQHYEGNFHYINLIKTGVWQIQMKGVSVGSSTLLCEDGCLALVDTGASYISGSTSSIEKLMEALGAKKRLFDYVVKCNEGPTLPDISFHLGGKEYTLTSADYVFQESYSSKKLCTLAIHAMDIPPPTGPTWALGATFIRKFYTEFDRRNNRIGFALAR
Experiment: In vitro human renin inhibition (renin activity in human plasma, angiotensin I radioimmunoassay)
Assay type: biochemical
Conditions: angiotensin I difference between halves incubated at 37° and 4° for 2 h, linear regression of at least three concentrations, read-out: IC₅₀
Procedure: In vitro human renin inhibition
Renin inhibitory activity was estimated as the percentage change in renin activity in human plasma in the presence and absence of compound. The source of plasma was blood taken from healthy volunteers. Renin activity was defined by the difference in angiotensin I levels between two halves of a sample, one incubated at 37^o and the other at 4^o for 2 h. Angiotensin I levels were measured using a ¹²⁵I- angiotensin I radioimmunoassay kit (NEN/DuPont, Stevenage). Results were calculated as the mean of at least two, duplicate determinations and IC₅₀ values were calculated by linear regression analysis of at least three concentrations of compound.

Compound | IC50
Cc1ccc2c(c1)N(CC(=O)N[C@@H](Cc1ccccc1)C(=O)N[C@@H](CC(C)C)C(=O)N[C@@H](CC1CCCCC1)[C@@H](O)CC(=O)NCC(C)C)C(=O)CO2 [Example E2, 2,3-Dihydro-6-methyl-3-oxo-4H-1,4-benzoxazine-4-acetyl-Phe-Leu-ACHPA isobutylamide .H₂O] | 220 nM
CC(C)C[C@H](NC(=O)[C@H](Cc1ccccc1)NC(=O)CCN1C(=O)COc2ccc(CN)cc21)C(=O)N[C@@H](CC1CCCCC1)[C@@H](O)CC(=O)NCCCn1ccnc1 [Example E11, 6-(Aminomethyl)-2,3-dihydro-3-oxo-4H-1,4-benzoxazine-4-propanoyl-Phe-Leu-ACHPA 3-(1imidazolyl)propylamide .3CF₃CO₂H] | 25 nM
CC(C)CNC(=O)C[C@H](O)[C@H](CC1CCCCC1)NC(=O)[C@H](CC(C)C)NC(=O)[C@H](Cc1ccccc1)NC(=O)CC1CCOc2ccccc21 (stereo partly drawn) [Example E1, Chromanyl-4-acetyl-Phe-Leu-ACHPA isobutylamide .0.5H₂O] | 47 nM
CC(C)CNC(=O)C[C@H](O)[C@H](CC1CCCCC1)NC(=O)[C@H](CC(C)C)NC(=O)[C@H](Cc1ccccc1)NC(=O)CCN1C(=O)CS(=O)(=O)c2ccccc21 [Example E7, 2,3-Dihydro-1,1,3-trioxo-4H-1,4-benzothiazine-4-propanoyl-Phe-Leu-ACHPA isobutylamide .0.5H₂O] | 13 nM

The remaining lines, values ahead:

IC50 | Compound
42 nM | CC(C)C[C@H](NC(=O)[C@H](Cc1ccccc1)NC(=O)CCN1C(=O)COc2ccc(C(=O)O)cc21)C(=O)N[C@@H](CC1CCCCC1)[C@@H](O)CC(=O)NCCCn1ccnc1 [Example E15, 6-Carboxy-2,3-dihydro-3-oxo-4H-1,4-benzoxazine-4-propanoyl-Phe-Leu-ACHPA 3-(1-imidazolyl)propylamide]
22 nM | CC(C)C[C@H](NC(=O)[C@H](Cc1ccccc1)NC(=O)CCN1C(=O)CCS(=O)(=O)c2ccccc21)C(=O)N[C@@H](CC1CCCCC1)[C@@H](O)CC(=O)NCCCn1ccnc1 [Example E19, 3,4-Dihydro-1,1,4-trioxo-1,5-benzothiazepine-5(2H)-propanoyl-Phe-Leu-ACHPA 3-(1-imidazolyl)propylamide]
8 nM | CC(C)C[C@H](NC(=O)[C@H](Cc1ccccc1)NC(=O)CCN1C(=O)CCSc2ccccc21)C(=O)N[C@@H](CC1CCCCC1)[C@@H](O)CC(=O)NCCCn1ccnc1 [Example E18, 3,4-Dihydro-4-oxo-1,5-benzothiazepine-5(2H)-propanoyl-Phe-Leu-ACHPA 3-(1-imidazolyl)propylamide.0.5(CHCl₃)]
